Activity calls are given as the source filed them.
Key:
HEK293 = assay: EBV LMP1 TES2 canonical NF-kB signalling blockers – cell-based, HEK293, luciferase, cherry-pick, dose response (AID 588343); type: functional; conditions: Homo sapiens
[1] = biological target: NAD-dependent protein deacylase sirtuin-5, mitochondrial (Homo sapiens, UniProt Q9NXA8); assay: sirtuin-5 deacylation blockers, concentration series – biochemical, fluorescence imaging, cherry-pick, set 5, dose response (AID 720591);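 further: desuccinylation of succinyl peptide AMC substrate read as fluorescence after trypsin release; potency of inhibitors that lower fluorescence and may act on trypsin instead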
Chain of NAD-dependent protein deacylase sirtuin-5, mitochondrial (Q9NXA8 whole entry): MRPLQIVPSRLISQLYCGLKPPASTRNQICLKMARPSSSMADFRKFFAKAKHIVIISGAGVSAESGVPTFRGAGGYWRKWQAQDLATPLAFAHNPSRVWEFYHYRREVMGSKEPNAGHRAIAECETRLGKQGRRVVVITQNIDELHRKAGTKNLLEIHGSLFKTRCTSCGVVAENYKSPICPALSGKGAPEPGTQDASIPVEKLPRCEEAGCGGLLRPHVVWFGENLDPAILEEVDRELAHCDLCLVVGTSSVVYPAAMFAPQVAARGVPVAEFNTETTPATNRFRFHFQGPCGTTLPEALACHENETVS

[2] = biological target: Induced myeloid leukemia cell differentiation protein Mcl-1 (Homo sapiens, UniProt Q07820); type: functional
Chain of Induced myeloid leukemia cell differentiation protein Mcl-1 (Q07820 whole entry): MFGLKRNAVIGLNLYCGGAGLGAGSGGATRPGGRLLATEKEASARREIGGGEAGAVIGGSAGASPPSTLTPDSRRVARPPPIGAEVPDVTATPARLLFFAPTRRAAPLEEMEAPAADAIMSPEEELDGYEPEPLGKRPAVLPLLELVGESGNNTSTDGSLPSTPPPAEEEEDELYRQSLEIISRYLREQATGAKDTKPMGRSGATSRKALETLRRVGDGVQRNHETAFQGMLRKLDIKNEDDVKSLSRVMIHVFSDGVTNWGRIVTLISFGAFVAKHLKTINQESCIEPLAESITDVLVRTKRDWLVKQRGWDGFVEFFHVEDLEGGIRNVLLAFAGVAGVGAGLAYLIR

Vero = assay: viability of Vero cells under compound – cytotoxicity control for flavivirus capping enzyme inhibitors (AID 588742); type: functional; conditions: Chlorocebus sabaeus
[3] = biological target: T1, Apoptotic protease-activating factor 1 (Homo sapiens, UniProt O14727); type: functional
T1 sequence (O14727 whole entry): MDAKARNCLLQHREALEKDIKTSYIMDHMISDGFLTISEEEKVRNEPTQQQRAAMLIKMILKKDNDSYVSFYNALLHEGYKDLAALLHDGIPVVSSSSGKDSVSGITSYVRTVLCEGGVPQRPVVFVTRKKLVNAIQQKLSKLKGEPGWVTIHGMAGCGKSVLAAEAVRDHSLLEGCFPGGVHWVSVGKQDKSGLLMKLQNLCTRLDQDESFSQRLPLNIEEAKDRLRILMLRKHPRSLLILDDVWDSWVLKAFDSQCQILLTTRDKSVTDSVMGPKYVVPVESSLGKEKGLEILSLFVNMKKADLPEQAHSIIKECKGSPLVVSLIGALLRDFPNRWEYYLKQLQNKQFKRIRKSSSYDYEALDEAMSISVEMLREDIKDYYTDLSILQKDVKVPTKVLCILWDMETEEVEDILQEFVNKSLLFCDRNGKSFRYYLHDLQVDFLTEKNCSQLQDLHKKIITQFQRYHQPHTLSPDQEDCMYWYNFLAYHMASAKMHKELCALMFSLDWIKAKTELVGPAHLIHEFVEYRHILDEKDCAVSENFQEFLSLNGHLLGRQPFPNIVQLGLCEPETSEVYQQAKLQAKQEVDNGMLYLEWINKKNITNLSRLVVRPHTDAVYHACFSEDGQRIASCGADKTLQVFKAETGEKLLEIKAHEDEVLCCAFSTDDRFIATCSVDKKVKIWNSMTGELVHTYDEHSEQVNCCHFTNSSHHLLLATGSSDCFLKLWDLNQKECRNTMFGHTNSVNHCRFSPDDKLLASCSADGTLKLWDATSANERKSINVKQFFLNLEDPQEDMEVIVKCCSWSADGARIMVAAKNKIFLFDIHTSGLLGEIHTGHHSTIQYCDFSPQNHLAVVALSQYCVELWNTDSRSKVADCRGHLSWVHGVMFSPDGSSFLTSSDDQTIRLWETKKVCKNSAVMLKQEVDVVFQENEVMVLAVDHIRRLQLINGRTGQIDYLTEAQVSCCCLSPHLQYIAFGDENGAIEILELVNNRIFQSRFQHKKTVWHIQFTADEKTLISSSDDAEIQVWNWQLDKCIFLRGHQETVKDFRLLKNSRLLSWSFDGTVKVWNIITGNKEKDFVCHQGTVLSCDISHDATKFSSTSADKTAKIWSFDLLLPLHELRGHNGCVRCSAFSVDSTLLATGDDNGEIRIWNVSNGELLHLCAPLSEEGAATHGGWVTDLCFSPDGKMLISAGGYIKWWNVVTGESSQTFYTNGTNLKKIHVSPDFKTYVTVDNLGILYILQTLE

[4] = IC50 of Artemis nuclease activity blockers – biochemical, fluorescence intensity, dose response (AID 720701); type: functional;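 further: Artemis endonuclease enzyme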
[5] = biological target: E3 ubiquitin-protein ligase Mdm2 (Homo sapiens, UniProt Q00987); assay: MDM2-luc reporter signal enhancers, multi-concentration potency testing, MDM2 ubiquitin-protein ligase inhibitor program, whole-cell format, luminescence detection, 384-well microplate (AID 1394); type: functional;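 further: MDM2 E3 inhibitors raise luminescence so EC50 is for signal enhancement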
Chain of E3 ubiquitin-protein ligase Mdm2 (Q00987 whole entry): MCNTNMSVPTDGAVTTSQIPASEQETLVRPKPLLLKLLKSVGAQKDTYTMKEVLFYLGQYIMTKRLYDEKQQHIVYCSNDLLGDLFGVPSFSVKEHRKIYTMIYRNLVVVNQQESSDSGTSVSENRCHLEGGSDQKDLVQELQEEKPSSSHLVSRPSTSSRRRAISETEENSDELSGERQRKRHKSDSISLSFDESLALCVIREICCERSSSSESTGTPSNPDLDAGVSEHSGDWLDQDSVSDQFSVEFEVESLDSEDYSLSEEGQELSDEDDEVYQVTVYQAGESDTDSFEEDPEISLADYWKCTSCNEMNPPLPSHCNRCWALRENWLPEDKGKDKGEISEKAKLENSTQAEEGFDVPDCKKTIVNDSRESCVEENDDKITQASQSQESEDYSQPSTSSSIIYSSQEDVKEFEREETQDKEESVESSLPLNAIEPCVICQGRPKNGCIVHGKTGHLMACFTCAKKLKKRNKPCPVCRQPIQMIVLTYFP

[6] = biological target: T2, Neuropeptides B/W receptor type 1 (Homo sapiens, UniProt P48145); assay: Fluorescence-based dose response cell-based high throughput screening assay to identify antagonists of the G-protein coupled receptor 7 (GPR7). [Related pubchem assays: 1952 (Screening assay (GPR7 antagonists).), 1880 (Summary AID.)]; type: functional
T2 sequence (P48145 whole entry): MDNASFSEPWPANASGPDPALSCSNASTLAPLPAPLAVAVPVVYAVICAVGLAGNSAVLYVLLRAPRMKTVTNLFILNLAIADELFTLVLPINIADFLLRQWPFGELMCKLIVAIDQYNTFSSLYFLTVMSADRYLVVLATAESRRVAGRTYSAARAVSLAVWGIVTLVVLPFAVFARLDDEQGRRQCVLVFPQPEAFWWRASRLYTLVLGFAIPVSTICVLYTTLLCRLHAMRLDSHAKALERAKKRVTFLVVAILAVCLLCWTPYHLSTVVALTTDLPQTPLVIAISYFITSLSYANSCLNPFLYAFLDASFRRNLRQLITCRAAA

[7] = biological target: Melanin-concentrating hormone receptor 1 (Homo sapiens, UniProt Q99705); assay: Fluorescence-based counterscreen for antagonists of the G-protein coupled receptor 7 (GPR7): cell-based high throughput dose response assay to identify antagonists of the melanin-concentrating hormone receptor 1 (MCHR1).; type: functional
Chain of Melanin-concentrating hormone receptor 1 (Q99705 whole entry): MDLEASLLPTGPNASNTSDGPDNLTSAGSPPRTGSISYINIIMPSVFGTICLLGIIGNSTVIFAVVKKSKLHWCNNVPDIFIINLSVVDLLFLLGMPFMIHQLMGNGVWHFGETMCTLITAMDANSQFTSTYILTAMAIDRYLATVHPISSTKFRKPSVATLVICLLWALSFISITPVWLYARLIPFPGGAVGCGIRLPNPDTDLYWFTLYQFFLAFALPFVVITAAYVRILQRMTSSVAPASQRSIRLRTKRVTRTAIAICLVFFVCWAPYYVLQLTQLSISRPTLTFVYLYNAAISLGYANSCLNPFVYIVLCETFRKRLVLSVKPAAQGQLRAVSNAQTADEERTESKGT

[8] = P. falciparum Dd2 growth inhibitors, dose response, SYBR Green, cherry-picked samples (AID 1159567); type: functional, cell-based
[9] = toxicity to human hepatoma HepG2 cells – cell-based, cherry-picked samples, cytotoxicity control, dose response (AID 1159577); type: functional

Which AC50 (HEK293) does the source give for `CC(Sc1nc(-c2ccc(F)cc2)cs1)C(=O)N1c2ccccc2CC1C` (stereo not given) here?
The AC50 was 117 µM (active).

What about the AC50 [1] of the same compound?
Its AC50 is > 30 µM (inactive).

For `Cc1ccc(N=Nc2c(N)nn3c(O)cc(-c4ccccc4)nc23)cc1`, which IC50 [2] is on record?
The IC50 was 12.9 µM (active).

What about the CC50 (Vero) of the same compound?
Its CC50 is 25.1 µM (active).

And the IC50 [3]?
The IC50 was 13.8 µM (active).

What about the IC50 [4] of the same compound?
Its IC50 is 16.9 µM (active).

With `O=C(NC1CCCCC1)C(c1cccnc1)N(C(=O)c1ccc(Cl)nc1)C1CCCCC1` (stereo not given) as the compound, how does the EC50 [5] read?
Its EC50 is 12.7 µM (not active).

For `COc1ccc(C(CNC(=O)COc2ccc(Cl)c(C)c2)N2CCCCC2)cc1` (stereo not given), which IC50 [6] is on record?
The IC50 was > 4.87 µM (active).

And the IC50 [7]?
Its IC50 is 11.3 µM (not active).

Which AC50 [8] does the source give for `COc1ccccc1NC(=O)N1CCCCN2[C@H](CO)[C@H](c3ccc(C#Cc4ccccc4)cc3)[C@H]2C1` here?
The AC50 was 1.03 µM (active).

What about the AC50 [9] of the same compound?
The AC50 was 8.11 µM (active).

With `C[C@@H]1C=CCCO[C@]12C(=O)N(Cc1ccccc1C(F)(F)F)c1ccccc12` as the compound, how does the AC50 [1] read?
Its AC50 is > 30 µM (inactive).

For `NS(=O)(=O)c1cnccc1Nc1ccc(Cl)cc1`, which AC50 [1] is on record?
The AC50 was > 30 µM (inactive).

For `COc1ccc(C2CC2/C(=N/O)c2ccccn2)cc1` (stereo not given), which IC50 [6] is on record?
Its IC50 is > 43.8 µM (not active).

And the IC50 [7]?
The IC50 was > 43.8 µM (not active).

Reference: ChEMBL document CHEMBL1201862, “PubChem BioAssay data set” (2004)
